Source: ChEMBL document CHEMBL1201862, “PubChem BioAssay data set” (2004)
“And” between values parts separate entries of the source, which are not always exact repeats. Identical values can stand only once.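 The compound was tested at five concentrations on cells cultured in 96-well plates, with a 48-hour exposure period. GI50: concentration for 50% inhibition of growth.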 The source made the active and inactive calls. Cut-off read from the data, not from the text of the source: active = GI50 up to about 1.1 µM and inactive = higher.

Experiments:
Assay in all cases: growth of human tumour cells (NCI), 48 h
CAKI-1 = tested on: CAKI-1
CCRF-CEM = tested on: CCRF-CEM
EKVX = tested on: EKVX
HCC 2998 = tested on: HCC 2998
HOP-62 = tested on: HOP-62
HOP-92 = tested on: HOP-92
HT-29 = tested on: HT-29
K562 = tested on: K562
KM12 = tested on: KM12
MOLT-4 = tested on: MOLT-4
NCI-H522 = tested on: NCI-H522
OVCAR-4 = tested on: OVCAR-4
OVCAR-8 = tested on: OVCAR-8
SK-MEL-5 = tested on: SK-MEL-5
SN12C = tested on: SN12C
SNB-19 = tested on: SNB-19
SW-620 = tested on: SW-620
UO-31 = tested on: UO-31
RXF 393 = tested on: RXF 393

Compound	GI50 (CAKI-1)	GI50 (CCRF-CEM)	GI50 (EKVX)	GI50 (HCC 2998)	GI50 (HOP-62)	GI50 (HOP-92)	GI50 (HT-29)	GI50 (K562)	GI50 (KM12)	GI50 (MOLT-4)	GI50 (NCI-H522)	GI50 (OVCAR-4)	GI50 (OVCAR-8)	GI50 (SK-MEL-5)	GI50 (SN12C)	GI50 (SNB-19)	GI50 (SW-620)	GI50 (UO-31)	GI50 (RXF 393)
O=C1Nc2ccccc2/C1=N/NC(=S)Nc1ccc([N+](=O)[O-])cc1	6.07 µM (inactive)	1.53 µM (inactive)	12.3 µM (inactive)	11.3 µM (inactive)	4.62 µM (inactive)	13.2 µM (inactive)	18.4 µM (inactive)	2.88 µM (inactive)	10.8 µM (inactive)	2.28 µM (inactive)	12.5 µM (inactive)	18.6 µM (inactive)	1.77 µM (inactive)	10.4 µM (inactive)	16.9 µM (inactive)	10.7 µM (inactive)	4.01 µM (inactive)	4.81 µM (inactive)	
COC1=CC(=O)C2=C(C[C@@]3(C)C(=C2)C(CO)=CC[C@H]3O)C1=O	73.3 µM (inactive)	4.04 µM (inactive)	21.8 µM (inactive)	36.5 µM (inactive)	25.2 µM (inactive)	11 µM (inactive)	46.1 µM (inactive)	2.57 µM (inactive)	31.4 µM (inactive)	0.0975 µM (active)		17.9 µM (inactive)	18.2 µM (inactive)	17.4 µM (inactive)	17.8 µM (inactive)	68.1 µM (inactive)	25.3 µM (inactive)	20 µM (inactive)	16.4 µM (inactive)
CO/C(=N\N=C\c1ccc(Cl)c(Cl)c1)c1ccncc1	> 10 µM (inactive)	> 10 µM (inactive)		> 10 µM (inactive)	> 10 µM (inactive)	4.26 µM (inactive)		> 10 µM (inactive)	> 10 µM (inactive)	> 10 µM (inactive)			> 10 µM (inactive)	> 10 µM (inactive)	> 10 µM (inactive)	> 10 µM (inactive)	> 10 µM (inactive)	> 10 µM (inactive)	> 10 µM (inactive)
Cc1ccc(C(=O)CCC2C(=O)CC(C)(C)CC2=O)cc1	17.5 µM (inactive)	24.5 µM (inactive)	> 100 µM (inactive)	> 100 µM (inactive)	> 100 µM (inactive)	44.9 µM (inactive)	> 100 µM (inactive)		> 100 µM (inactive)	> 100 µM (inactive)	16.6 µM (inactive)	> 100 µM (inactive)	> 100 µM (inactive)	> 100 µM (inactive)	> 100 µM (inactive)	> 100 µM (inactive)	> 100 µM (inactive)	> 100 µM (inactive)	> 100 µM (inactive)
CO[C@]12S[C@@H]3CCCC[C@@]31C(C)(C)C(=O)N2c1ccccc1	48.5 µM (inactive)	13.5 µM (inactive)	55.7 µM (inactive)	51.2 µM (inactive)	16.7 µM (inactive)	38 µM (inactive)	47.4 µM (inactive)	29.7 µM (inactive)	36.7 µM (inactive)	21.7 µM (inactive)	27.6 µM (inactive)		30.1 µM (inactive)	20.5 µM (inactive)	18.4 µM (inactive)	> 100 µM (inactive)	30.4 µM (inactive)	91.4 µM (inactive)	49.5 µM (inactive)
O=C(CSc1nc2ccccc2c(=O)n1-c1ccccc1)N/N=C1\C(=O)Nc2ccc(F)cc21	1.73 µM (inactive)	2.35 µM (inactive)	2.43 µM (inactive)	2.21 µM (inactive)	2.09 µM (inactive)	1.84 µM (inactive)	3.06 µM (inactive)	1.61 µM (inactive)	3.71 µM (inactive)	1.61 µM (inactive)		1.82 µM (inactive)		3.3 µM (inactive)	1.97 µM (inactive)	4.08 µM (inactive)	4.24 µM (inactive)	2 µM (inactive)	1.95 µM (inactive)
Cc1ccc(NC(=O)/C(CC2Nc3c(ccc4c3C(=O)c3ccccc3C4=O)NC2O)=N/NC(C)(C)C)cc1 (stereo unspecified)	8.3 µM (inactive)	1.36 µM (inactive)	10 µM (inactive)	22.6 µM (inactive)	13.8 µM (inactive)	16.8 µM (inactive)	16.4 µM (inactive)		8.85 µM (inactive)	2.37 µM (inactive)	15.9 µM (inactive)	17.7 µM (inactive)	6.52 µM (inactive)	5.6 µM (inactive)	12.6 µM (inactive)	28 µM (inactive)	9.68 µM (inactive)	3.7 µM (inactive)	11.1 µM (inactive)
COC1CN(C)/C(=N\c2cccc3ccccc23)S1 (stereo unspecified)	> 10 µM (inactive)	> 10 µM (inactive)		> 10 µM (inactive)	> 10 µM (inactive)	> 10 µM (inactive)	> 10 µM (inactive)	> 10 µM (inactive)	> 10 µM (inactive)	> 10 µM (inactive)	> 10 µM (inactive)	> 10 µM (inactive)	> 10 µM (inactive)	> 10 µM (inactive)	> 10 µM (inactive)	> 10 µM (inactive)	> 10 µM (inactive)		
O=C1Nc2ccccc2/C1=N/Nc1nc(-c2cccc([N+](=O)[O-])c2)cs1	19.2 µM (inactive)	32.8 µM (inactive)	22.5 µM (inactive)	18.1 µM (inactive)	24.1 µM (inactive)	20.1 µM (inactive)	17.7 µM (inactive)		26.3 µM (inactive)	31.5 µM (inactive)	20.1 µM (inactive)	21 µM (inactive)	15.9 µM (inactive)	20.2 µM (inactive)	20.8 µM (inactive)	26.7 µM (inactive)	36.8 µM (inactive)	55.3 µM (inactive)	29.5 µM (inactive)
OC[C@@H](O)[C@H]1NC[C@@H](O)[C@H]1O	> 100 µM (inactive)	> 100 µM (inactive)	> 100 µM (inactive)	> 100 µM (inactive)	> 100 µM (inactive)	> 100 µM (inactive)	> 100 µM (inactive)		> 100 µM (inactive)	> 100 µM (inactive)	> 100 µM (inactive)	> 100 µM (inactive)	> 100 µM (inactive)	> 100 µM (inactive)	> 100 µM (inactive)	> 100 µM (inactive)	> 100 µM (inactive)	> 100 µM (inactive)	> 100 µM (inactive)
O=C(/C=C/c1ccccc1)c1ccccn1	26.2 µM (inactive) and 16.6 µM (inactive)	10 µM (inactive) and 17.1 µM (inactive)	22 µM (inactive) and 18.1 µM (inactive)	13.8 µM (inactive) and 19.3 µM (inactive)		19.1 µM (inactive)	20.7 µM (inactive) and 15.5 µM (inactive)		19.1 µM (inactive) and 14.4 µM (inactive)	23.8 µM (inactive)	17.8 µM (inactive) and 15.1 µM (inactive)	17.3 µM (inactive) and 20.6 µM (inactive)	17.6 µM (inactive) and 25.1 µM (inactive)	14 µM (inactive) and 26.1 µM (inactive)	14.3 µM (inactive) and 17.2 µM (inactive)		18.7 µM (inactive) and 29.8 µM (inactive)	17.3 µM (inactive) and 20.6 µM (inactive)	19.2 µM (inactive) and 18.6 µM (inactive)
Cc1c(N)nc([C@H](CC(N)=O)NC[C@H](N)C(N)=O)nc1C(=O)N[C@H](C(=O)N[C@H](C)[C@@H](O)CC(=O)N[C@H](C(=O)NC(O[C@@H]1O[C@@H](C)[C@@H](N)[C@@H](O)[C@H]1O)C(O)c1nc(-c2nc(C(=O)NCCC[S+](C)C)cs2)cs1)[C@@H](C)O)[C@H](O[C@@H]1O[C@@H](CO)[C@@H](O)[C@H](O)[C@@H]1O[C@H]1O[C@H](CO)[C@@H](O)[C@H](OC(N)=O)[C@@H]1O)c1c[nH]cn1 (stereo partly specified)	73.8 µM (inactive)	> 100 µM (inactive)	> 100 µM (inactive)	8.39 µM (inactive)	5.18 µM (inactive)	24.6 µM (inactive)	82.8 µM (inactive)		97.1 µM (inactive)	38.6 µM (inactive)	15.1 µM (inactive)	> 100 µM (inactive)	48.9 µM (inactive)	28.8 µM (inactive)	> 100 µM (inactive)	> 100 µM (inactive)	> 100 µM (inactive)	26.7 µM (inactive)	25.8 µM (inactive)
COc1ccc(-c2cc(=O)c3c(O)cc(O)cc3o2)cc1OC		41.8 µM (inactive)	83.8 µM (inactive)	> 100 µM (inactive)	24 µM (inactive)	2.3 µM (inactive)	81.8 µM (inactive)	92.7 µM (inactive)	33 µM (inactive)	44 µM (inactive)	16.7 µM (inactive)	> 100 µM (inactive)		23 µM (inactive)	59.6 µM (inactive)	26.6 µM (inactive)	> 100 µM (inactive)	36.7 µM (inactive)	46.3 µM (inactive)
O=c1c(C(c2ccccn2)c2c(O)oc3cc(O)ccc3c2=O)c(O)oc2cc(O)ccc12	> 100 µM (inactive)	> 100 µM (inactive)	> 100 µM (inactive)	> 100 µM (inactive)	> 100 µM (inactive)	> 100 µM (inactive)	> 100 µM (inactive)	> 100 µM (inactive)	> 100 µM (inactive)	> 100 µM (inactive)	> 100 µM (inactive)		44.2 µM (inactive)	> 100 µM (inactive)	> 100 µM (inactive)	> 100 µM (inactive)	> 100 µM (inactive)	> 100 µM (inactive)	> 100 µM (inactive)
CC(=O)O[C@H]1CC[C@]2(C=O)[C@H]3CC[C@]4(C)[C@@H](C5=CC(=O)OC5)CC[C@]4(O)[C@@H]3CC[C@]2(O)C1 [STROPHANTHIDIN ACETATE]	0.0536 µM (active)	0.0605 µM (active)	0.225 µM (active)	0.325 µM (active)	0.226 µM (active)	0.424 µM (active)	0.212 µM (active)	0.83 µM (active)	0.692 µM (active)	0.0262 µM (active)	0.0336 µM (active)	0.0998 µM (active)	0.267 µM (active)	0.0923 µM (active)	0.42 µM (active)	0.608 µM (active)	0.264 µM (active)	0.23 µM (active)	
